Measured values taken from patent publication US20210038732A1, “ANTICANCER MICRORNA AND LIPID FORMULATIONS THEREOF” (INTERNA TECHNOLOGIES B.V., priority 2018, published 2021).

Tests used:
[1] = tested on: H22 (mouse liver tumor cells); experiment: Re-challenge of surviving treated mice with H22 cells (Example 4.4); assay type: in vivo
Procedure: To investigate the long-term immunity in miRNA-193a treated mice against 4T1 cells, on day 75 after inoculation, mice treated with miRNA-193a and 8 naïve (non-tumor bearing) mice were re-challenged by subcutaneous injection of 3×10^5 4T1 mouse tumor cells in PBS (0.1 mL/mouse) into the right front flank. TV and BW were monitored for 3 weeks. Then, to investigate the immunization status of miRNA-193a treated mice against other cell types, on day 101, mice treated with miRNA-193a and 8 naïve (non-tumor bearing) mice were re-challenged by subcutaneous injection of H22 (mouse liver tumor cells) cells in PBS (0.1 mL/mouse) into the right lower flank.

A549 = experiment: Cell motility, Boyden chamber assay; assay type: cell-based, human; settings: 10 nM; A549 (first of two symbols in the cell)
Procedure: (§1) To check the migratory ability of cells, a Boyden Chamber assay was performed, which is based on a chamber of two medium-filled compartments separated by a […] pore size membrane (BD falcon). In this assay, depending on cell type 60,000-120,000 cells were seeded in the upper compartment of the membrane in serum free medium and were allowed to migrate through the pores of the membrane into the lower compartment, in which serum is present in the media. The serum acts as a chemoattractant. After an appropriate incubation time, the membrane between two compartments was fixed, stained and 6 different images from each membrane were taken. The number of migratory cells were counted using Image J analysis.
(§2) Different biological effects of miRNA-193a-3p have been tested in various cancer cell lines (see Table 13). For this, various cells were treated with miRNA-193a at different concentrations (1, 3, 10 nM). For all experiments controls (untreated, mock and scrambled) were measured. All assays were performed at 24h, 48h and 72h time points. Data shown in Table 13 are the results for miRNA-193a at 10 nM concentration at indicated time points. All the results have been quantified and normalized to the mock control.
(§3) miRNA-193a treatment in various cancer cell lines decreased cell viability over time as measured by either an MTS assay or by cell count. It enhanced apoptosis induction over time as measured by a caspase 3/7 apoptosis assay. […] It is of note that due to intrinsic characteristics and gene mutation status of each cell line, performing one method to detect apoptosis is not always ideal for all cell lines.

A2058 = experiment: Cell motility, Boyden chamber assay; assay type: cell-based, human; settings: 10 nM
Procedure: as §1, §2, §3

HeP3B, SNU449 = experiment: Cell motility, Boyden chamber assay; assay type: cell-based, human; settings: 10 nM
Procedure: as §1, §2, §3

4T1 = experiment: Caspase 3/7 apoptosis assay; assay type: cell-based, mouse; settings: 10 nM, normalized to mock
Procedure: Depending on cancer cell type 3000-6000 cells were seeded in a 96 well plate. After cells attached, they were transfected with different concentrations of miRNA-193a and apoptosis induction was measured at different time points. This assay was performed using Promega kit. 100 uL of caspase reagent was added to 100 uL of media in each well in 96-well plate and incubated for 2 hours in the dark at room temperature. The luminescent signal was read on a luminescent plate reader.
as §2, §3

HEP3B, SNU449, A2058 = experiment: Cell cycle distribution by imaging of nuclei (Example 4.9); assay type: cell-based; settings: 1 nM, 3 nM and 10 nM, concentration-dependent; vs mock
Procedure: Depending on cancer cell type 3000-6000 cells were seeded in a 96 well plate. After cells attached, they were transfected with different concentrations of miRNA-193a and cell cycle profile was measured at different time points. At selected time points media was aspirated from wells and DNA staining solution (Hoescht 33342/Saponin/PFA) was added to each well and incubated for 2 hours at 37° C. Then, cell images were taken using Thermo Celllnsite in which nuclei were specified and nuclei intensity were measured. Nuclei intensity was analyzed using program R to determine the different phases of the cell cycle (G0/G1, S, G2/M) based on the DNA content.
Similar phenotype has been observed in Panc1 (pancreatic cancer cell) as well as H1975 (lung cancer cell) (data not shown). […] MPP2 and STMN1 associate with cytoskeleton and therefore regulate cell division and proliferation at the G2/M phase, while YWHAZ and CCNA2 play roles in regulation of G2/M phase checkpoint by binding and sequestering the cyclin-dependent kinases.

4T1 cells = experiment: Adoptive CD3+ T-cell transfer from survivors into naive mice, 4T1 challenge; assay type: in vivo; settings: 1×107 CD3+ T-cells iv; followed about 5 weeks; vs control naïve mice
Procedure: Adoptive transfer of CD3+ T cells form the survivor mice into naive mice was performed after spleens, auxiliary, brachial, and inguinal lymph nodes excision. Cell suspension were made from the indicated organs and pooled. Then, CD3+ T-cells were isolated from the pool using magnetic beads according the manufacturer's protocol (Miltenyi Biotech). 1×107 CD3+ T-cells per mouse were injected intravenously.
On day 133 post-tumor cell inoculation CD3+ T-cells were recovered from the spleens, auxiliary, brachial, and inguinal lymph nodes of the surviving animals. T-cells were pooled and transferred i.v. to 6 naïve age-matched mice (1×107 CD3+ Tcells per mouse at day 0). One day post-T-cell transfer, animals were re-challenged with 3×10^5 4T1 cells in PBS (0.1 mL/mouse) in the right mammary fat pad of 6 naive age-matched mice (as control group) and the 6 mice that received CD3+ T-cells. Tumor growth was followed for about 5 weeks.

Substance: miRNA-193a: duplex of the miRNA-193a-3p of SEQ ID NO: 218 (mimic, sense) with antisense strand SEQ ID NO: 219; naked in vitro, formulated in vivo (sense UGGGACUUUGUAGGCCAGUUTT; antisense AACUGGCCUACAAAGUCCCAGU; chemistry not given here; listed as Homo sapiens)
- Tumor take after re-challenge with H22 cells ([1]; re-challenge day 101, 38 days post end of treatment): 100%
- H22 tumor growth after re-challenge ([1]; re-challenge day 101, vs naïve mice): rapid inhibition of H22 tumor growth
- Motility (18 to 24 h) (A549): ↓
- Motility (18 to 24 h) (A2058): ↓
- Motility (18 to 24 h) (HeP3B, SNU449): ↓
- Apoptosis (48/72 h) (4T1): ↑ (Induction < 2x)
- G2/M arrest (HEP3B, SNU449, A2058): enhances the G2/M arrest
- 4T1 tumor growth in naive mice that received CD3+ T-cells from treated survivors (4T1 cells): did not show any 4T1 tumor growth
